The subject of assay [1] is Aspergillus niger. Nature of the assay: Antimicrobial activity against Aspergillus niger by agar diffusion method. The format is functional, organism-based. On the technique in general: A growth-free zone around the sample is the usual read-out of agar diffusion tests.
In assay [2] the test system is Escherichia coli. Nature of the assay: Antimicrobial activity against Escherichia coli by agar diffusion method. Type of assay: functional, organism-based.
Assay [3] concerns NCI-H460. Nature of the assay: Cytotoxicity against human NCI-H460 cells by colorimetric assay. The format is functional, cell-based.
Assay [4] relates to SW1990. Nature of the assay: Cytotoxicity against human SW1990 cells by colorimetric assay. The format is functional, cell-based.
Assay [5] has as its system SMMC-7721. Nature of the assay: Cytotoxicity against human SMMC7721 cells by colorimetric assay. Type of assay: functional, cell-based.
In assay [6] the test system is Staphylococcus aureus. Nature of the assay: Antimicrobial activity against Staphylococcus aureus by agar diffusion method. The format is functional, organism-based.

Values after ≈ are worked out from the molar mass of the structure shown. Active and inactive are the calls of the source. The calls are words filed in the database; no cut-off is given here.

For orientation: IC50 means the concentration that inhibits the measured activity by half. Lower therefore signals higher potency. With `C=C(CC[C@@H](C)[C@H]1CC[C@H]2C3=C(CC[C@]12C)[C@@]1(C)CC[C@H](O)C[C@@H]1C(=O)O3)C(C)C`, the result in assay [1], in assay [2] and in assay [6] was inactive. Moreover, the IC50 in assay [3] stood at 5 µg/mL (≈ 12.1 µM); in assay [4], 28 µg/mL (≈ 67.5 µM); in assay [5], 7 µg/mL (≈ 16.9 µM).

For `C=C(CC[C@@H](C)[C@H]1CC[C@H]2C3=C([C@H](O)C[C@]12C)[C@@]1(C)CC[C@H](O)C[C@@H]1CC3=O)C(C)C`, the outcome in assay [1], in assay [2] and in assay [6] was inactive. The compound also yielded an IC50 in assay [5] of 28 µg/mL (≈ 65.3 µM).

As for `C=C(CC[C@@H](C)[C@H]1CC[C@H]2C3=C(CC[C@]12C)[C@@]1(C)CC[C@H](O)C[C@@H]1CC3=O)C(C)C`, the outcome in assay [1], in assay [2] and in assay [6] was inactive.

Source of the values: ChEMBL document CHEMBL1629426, “7-Nor-ergosterolide, a pentalactone-containing norsteroid and related steroids from the marine-derived endophytic Aspergillus ochraceus EN-31” (J Nat Prod, 2010).
